Assays:
[1] = system: anti-Dsg3 antibody-induced skin damage; experiment: Neonatal passive transfer model; conditions: for mice with blisters: 8 mice treated
PI3K p110α = PI3K p110α (Homo sapiens, UniProt P42336); conditions: compound pre-incubation time of 30 min
[2] = system: autoantibody-mediated cutaneous lesions; experiment: Immunization-induced mouse model of epidermolysis bullosa acquista (EBA); type: in vivo, B6.SJL-H2s mice; conditions: for body weight gain: 6 week treatment, LAS191954 3 mg/kg/day, methylprednisolone 20 mg/kg/day
Procedure: Induction of experimental EBA was performed as described in […] et al., J Immunol. 2013; 191:2978-2988. Briefly, 6-10 week B6.SJL-[…] mice were immunized with an emulsion of a recombinant protein encompassing the vWFA2 binding domain of mouse type VII collagen (COL7) in adjuvant (Titermax). After immunization, mice were weekly evaluated for the presence and extend of clinical disease, measured as percentage of body surface affected by skin lesions (erythema, blisters, erosions and crusts). […] Treatments were carried out over a 6-week period, and mice were evaluated for the extend of clinical disease (primary endpoint) weekly. […] For better comparability between experiments, the affected body surface area at weeks 1-6 was related to that at inclusion (set at 1). Body weight was monitored weekly during treatment.

PI3K p110β = PI3K p110β (Homo sapiens, UniProt P42338); conditions: compound pre-incubation time of 30 min
[3] = system: anti-Dsg3 and anti-dsDNA autoantibody production; experiment: MRL/lpr mouse spontaneous autoimmune disease model, autoantibody production; type: in vivo
Procedure: The primary endpoint of this study was assessment of autoantibody production, including pemphigus-specific anti-Dsg3 antibodies.
The prednisolone dose was selected based on previous reports and corresponds to a high CS dose in humans.
As autoantibodies develop progressively and may follow a different course in each animal, anti-dsDNA antibody levels were measured on week 12 and used to uniformly distribute animals to dosing groups. At week 13, daily treatments were initiated and continued for 6 weeks. Antibodies to dsDNA and Dsg3 were measured at weeks 12, 15, 17 and 19. Skin lesions were inspected visually throughout the study. Effects on other parameters such as proteinuria, as well as general hematological, serological, and histological signs were evaluated at study completion.

[4] = system: anti-KLH antibody response; experiment: Secondary TDAR assay to KLH in mice; type: in vivo
Procedure: This assay included two immunizations with KLH separated 15 days apart (50 μg KLH/animal, intraperitoneally) and specific IgG anti-KLH levels were measured on day +11 after the second immunization. Administration of test compound (0.3 and 3 mg/kg) started on the day of second immunization (day +1) and then once daily for the next 9 days.

[5] = system: anti-KLH antibody response; experiment: Primary T-dependent antibody response (TDAR) to KLH in mice; type: in vivo
Procedure: This assay allows a global assessment of the effect of a drug candidate on antigen presentation, helper T lymphocyte function and B lymphocyte dependent antibody production.
In both cases, the administration of the test compound started on the day of sensitization (day +1, KLH 2 mg/mouse, intravenously). […] A possible reason for this discrepancy is that the lymphocyte count of the concurrent vehicle group of the latter study was abnormally lower than usual, which could mask a potential effect of the test compound on this parameter.

[6] = week 19 versus week 12 (FIG. 3)

PI3K p110β, sequence (P42338 whole entry): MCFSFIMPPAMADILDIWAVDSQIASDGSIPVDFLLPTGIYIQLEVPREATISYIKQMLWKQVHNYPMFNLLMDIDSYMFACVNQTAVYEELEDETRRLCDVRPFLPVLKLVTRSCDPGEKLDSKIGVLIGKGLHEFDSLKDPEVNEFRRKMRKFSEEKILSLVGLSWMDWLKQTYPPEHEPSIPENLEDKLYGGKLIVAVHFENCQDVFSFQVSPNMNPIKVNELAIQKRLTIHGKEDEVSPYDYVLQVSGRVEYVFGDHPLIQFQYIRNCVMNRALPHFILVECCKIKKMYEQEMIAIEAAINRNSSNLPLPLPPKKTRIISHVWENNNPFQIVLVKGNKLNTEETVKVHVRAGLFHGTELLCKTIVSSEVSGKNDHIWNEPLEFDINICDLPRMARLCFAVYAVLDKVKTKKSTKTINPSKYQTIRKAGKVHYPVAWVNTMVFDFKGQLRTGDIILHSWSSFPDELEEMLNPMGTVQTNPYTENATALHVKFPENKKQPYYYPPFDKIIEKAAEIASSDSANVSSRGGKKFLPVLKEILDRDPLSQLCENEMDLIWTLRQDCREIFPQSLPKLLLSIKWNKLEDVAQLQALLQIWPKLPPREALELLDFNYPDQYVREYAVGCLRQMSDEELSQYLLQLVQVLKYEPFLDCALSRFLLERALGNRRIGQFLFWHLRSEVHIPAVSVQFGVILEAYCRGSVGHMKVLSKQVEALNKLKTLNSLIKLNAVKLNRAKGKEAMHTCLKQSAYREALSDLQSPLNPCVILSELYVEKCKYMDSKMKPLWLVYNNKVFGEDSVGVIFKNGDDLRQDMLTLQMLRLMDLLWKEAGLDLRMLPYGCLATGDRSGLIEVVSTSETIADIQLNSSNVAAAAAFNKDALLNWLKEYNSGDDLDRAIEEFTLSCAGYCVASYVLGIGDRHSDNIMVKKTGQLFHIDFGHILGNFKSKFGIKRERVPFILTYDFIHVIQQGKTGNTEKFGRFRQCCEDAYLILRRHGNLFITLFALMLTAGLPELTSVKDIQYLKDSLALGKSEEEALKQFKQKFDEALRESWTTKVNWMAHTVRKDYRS
PI3K p110β, sequence (P27986 whole entry partner): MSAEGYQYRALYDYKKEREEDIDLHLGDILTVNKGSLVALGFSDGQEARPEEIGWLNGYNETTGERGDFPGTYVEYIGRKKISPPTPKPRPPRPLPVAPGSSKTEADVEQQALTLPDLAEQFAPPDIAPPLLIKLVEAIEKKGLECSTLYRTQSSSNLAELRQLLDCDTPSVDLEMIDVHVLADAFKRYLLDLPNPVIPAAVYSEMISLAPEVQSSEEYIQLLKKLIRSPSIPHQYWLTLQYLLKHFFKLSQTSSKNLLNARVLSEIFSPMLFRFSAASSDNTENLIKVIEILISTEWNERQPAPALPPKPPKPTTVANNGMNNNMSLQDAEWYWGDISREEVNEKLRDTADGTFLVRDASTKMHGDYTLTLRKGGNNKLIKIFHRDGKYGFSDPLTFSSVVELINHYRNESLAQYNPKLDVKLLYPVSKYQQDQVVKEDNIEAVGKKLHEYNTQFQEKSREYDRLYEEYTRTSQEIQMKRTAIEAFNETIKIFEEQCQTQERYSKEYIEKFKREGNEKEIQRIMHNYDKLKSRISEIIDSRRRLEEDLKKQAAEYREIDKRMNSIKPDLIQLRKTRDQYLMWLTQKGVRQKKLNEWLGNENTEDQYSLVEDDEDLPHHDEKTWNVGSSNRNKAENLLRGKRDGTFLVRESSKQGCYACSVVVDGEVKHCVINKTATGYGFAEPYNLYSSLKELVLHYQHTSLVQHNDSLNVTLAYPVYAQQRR
PI3K p110α, sequence (P42336 whole entry): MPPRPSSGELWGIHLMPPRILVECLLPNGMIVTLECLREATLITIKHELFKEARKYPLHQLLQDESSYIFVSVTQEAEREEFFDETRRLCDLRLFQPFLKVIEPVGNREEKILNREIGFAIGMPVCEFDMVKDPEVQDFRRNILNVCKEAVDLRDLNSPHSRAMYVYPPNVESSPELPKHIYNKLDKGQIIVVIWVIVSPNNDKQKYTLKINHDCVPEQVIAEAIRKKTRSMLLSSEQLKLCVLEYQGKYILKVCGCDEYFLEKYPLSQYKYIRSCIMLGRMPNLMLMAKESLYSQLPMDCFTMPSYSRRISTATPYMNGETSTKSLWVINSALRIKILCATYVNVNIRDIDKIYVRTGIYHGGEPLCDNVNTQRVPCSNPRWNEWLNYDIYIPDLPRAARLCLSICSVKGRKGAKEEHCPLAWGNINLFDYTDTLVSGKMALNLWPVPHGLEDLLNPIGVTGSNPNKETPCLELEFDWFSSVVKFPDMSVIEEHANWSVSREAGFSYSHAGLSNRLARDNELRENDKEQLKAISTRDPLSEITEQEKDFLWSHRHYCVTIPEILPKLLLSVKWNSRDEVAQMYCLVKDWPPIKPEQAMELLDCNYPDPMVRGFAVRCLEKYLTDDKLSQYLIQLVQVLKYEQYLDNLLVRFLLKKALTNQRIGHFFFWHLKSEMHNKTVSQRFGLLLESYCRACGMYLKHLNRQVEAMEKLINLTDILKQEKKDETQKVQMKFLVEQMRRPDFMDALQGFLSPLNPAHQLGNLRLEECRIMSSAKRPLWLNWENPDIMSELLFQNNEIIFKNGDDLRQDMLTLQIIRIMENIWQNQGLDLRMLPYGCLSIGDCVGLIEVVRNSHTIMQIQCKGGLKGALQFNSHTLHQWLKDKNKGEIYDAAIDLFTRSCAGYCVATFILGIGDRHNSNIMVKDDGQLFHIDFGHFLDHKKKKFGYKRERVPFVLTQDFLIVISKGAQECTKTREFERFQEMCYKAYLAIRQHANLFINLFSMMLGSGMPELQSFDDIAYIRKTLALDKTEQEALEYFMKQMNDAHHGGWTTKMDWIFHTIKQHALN
PI3K p110α, sequence (P27986 whole entry partner): as the sequence (P27986 whole entry partner) above

C[C@H](Nc1ncnc(N)c1C#N)c1nn2ccc(C#N)c2c(=O)n1-c1ccccc1 [LAS191954, (S)-2-(1-(6-amino-5-cyanopyrimidin-4-ylamino)ethyl)-4-oxo-3-phenyl-3,4-dihydropyrrolo[1,2-f][1,2,4]triazine-5-carbonitrile]
% with blisters ([1]; PV IgG + LAS191954 1 mg/kg): 75% | mice with blisters ([1]; PV IgG + LAS191954 1 mg/kg): 6 | % with blisters ([1]; PV IgG + LAS191954 10 mg/kg): 100% | mice with blisters ([1]; PV IgG + LAS191954 10 mg/kg): 8 | effect on anti-Dsg3 antibody-induced skin damage ([1]; mouse, in vivo): no direct effect | IC50 (PI3K p110α): 8.22 µM | body weight gain [2]: not altered | overall disease activity, AUC of clinical score ([2]; LAS191954 orally 3 mg/kg/day, 6 weeks, versus vehicle): significant reduction in the accumulative clinical score | IC50 (PI3K p110β): 0.0942 µM | ID50, anti-Dsg3 and anti-dsDNA autoantibody production ([3]; Mrl/Lpr model, repeated administration): <3 mg/kg | reduction of anti-dsDNA antibody titers [3, 6]: 10% | ID50, secondary IgG antibody responses to KLH ([4]; day +11 after second immunization, 0.3 and 3 mg/kg once daily): <0.3 mg/kg | lymphocyte counts ([4]; secondary TDAR, 0.3 and 3 mg/kg): reduced lymphocyte counts | ID50, primary IgM antibody responses to KLH ([5]; day +5 PI, 4 days of daily treatment, 0.03-10 mg/kg): 0.12 mg/kg | ID50, primary IgG antibody responses to KLH ([5]; day +15 PI, 14-day dosing, 0.03-1 mg/kg): 0.17 mg/kg | lymphocyte count ([5]; primary IgG study): no apparent effect | general health status of the animals ([5]; primary IgM and IgG studies): without apparent effects | WBC counts ([5]; primary IgM study, mainly reduced peripheral blood lymphocytes): lower WBC counts

C[C@H]1C[C@@H]2[C@H]([C@@H](O)C[C@@]3(C)[C@H]2CC[C@]3(O)C(=O)CO)[C@@]2(C)C=CC(=O)C=C12 [Methylprednisolone, reference compound]
body weight gain [2]: diminished the body weight gain

C[C@]12C=CC(=O)C=C1CC[C@@H]1[C@@H]2[C@@H](O)C[C@@]2(C)[C@H]1CC[C@]2(O)C(=O)CO [Prednisolone, prednisolone, reference compound]
change of anti-dsDNA antibody levels at the end of treatment [3, 6]: doubled

Reference: patent publication US20170189409A1, “MEDICAL USE” (Almirall, S.A., priority 2014, published 2017)
